Entries after “also recorded” stand apart in the source; their conditions may differ. Like-named read-outs stand apart in the source and are kept apart here.
Columns and labels:
SH-SY5Y cells [1] = test: Intracellular sulfide levels in SH-SY5Y cells (HPLC); format: cell-based, Human
Method: Human neuroblastoma SH-SY5Y cells were cultured in Eagle's medium/Ham's F-12 50/50 Mix (DMEM/F12, Cellgro by Mediatech, Inc.) supplemented with 10% fetal bovine serum (FBS) and 1% penicillin/streptomycin. The cells were seeded into 96 well plates (2×10^4 cells per well) for OGD and measurements of toxicity, 6 cm dishes (5×10^5 cells per dish) for measurements of sulfide and reduced-glutathione (GSH), or 10 cm dishes (1×10^6 cells per dish) for measurements of intracellular calcium. Cell culture medium was replaced every 2 days, and the cultures were maintained at 37° C. in 95% air/5% CO2 in a humidified incubator. Cells were used after reaching 80% confluent.
Concentration of free sulfide in SH-SY5Y cells was measured using high performance liquid chromatography (HPLC) (Tokuda et al. (2012) Antioxidants & Redox Signaling). Briefly, SH-SY5Y cells were seeded into 6 cm dishes (5×10^5 cells per dish). After being 80% confluent, 20 μM H2S donor was added to the dish and incubated at 37° C. Cells were washed with ice-cold Tris-HCl (100 mM, PH 9.5, DTPA 0.1 mM) buffer, scraped, transferred to microfuge tubes, and centrifuged. MBB (10 mM in acetonitrile, 50 μl) was added to 100 μl of supernatant. After 30 minutes of incubation at room temperature in dark, 50 μl of 200 mM 5-sulfosalicylic acid (SSA) was added. After centrifugation, supernatant was analyzed by HPLC. For sulfide levels in medium, after centrifugation, supernatant was used for MBB reaction as above.
In contrast, incubation of SH-SY5Y cells with S-memantine increased intracellular sulfide level more markedly than incubation with ACS48 at all time points after addition (˜10 fold at 4 hours, P<0.001 by two-way ANOVA with Bonferroni post-test). In a separate experiment, we examined whether or not incubation with memantine itself or incubation with ACS48 and memantine would affect intracellular sulfide levels in SH-SY5Y cells.

SH-SY5Y cells [2] = test: Oxygen-glucose deprivation (OGD) of SH-SY5Y cells, viability by LDH release, MTT and CV assays; format: cell-based, Human
Method: OGD for SH-SY5Y was performed by placing cells in a hypoxia chamber ([…] Technologies Inc.) for 15 hours, followed by 24 hours of reoxygenation as previously reported (FIG. 3A) (Serra-Pérez et al. (2008) Journal of Neurochemistry 106, 1237-1247). Briefly, medium was replaced with glucose-free RPMI 1640 with L-glutamine (Cellgro by Mediatech, Inc), deoxygenated with anaerobic gas mixture (93% N2-5% CO2-2% H2) for 30 minutes before use. Cells were then placed in a hypoxia chamber, flushed with anaerobic gas mixture (93% N2-5% CO2-2% H2) and incubated at 37° C. After 15 hours of hypoxia, medium was replaced with DMEM/F12 and incubated for 24 hours at 37° C. in 95% air/5% CO2 in a humidified incubator.
(§1) A microtiter plate containing cells was centrifuged at 250×g for 10 minutes and the supernatant was used for LDH measurement with LDH Cytotoxicity Detection Kit (Roche). After aspirating the medium, remaining cells were washed with PBS, then, 100 μl of 1% Triton-X was added to each well, followed by incubation at 37° C. for 30 minutes. Medium and lysates were used for LDH measurement at wavelength 492 nm. Percentage of released LDH was calculated with following formula: {LDH (medium)/LDH (medium+cell)×100}. Average value of control (cells without OGD) was deducted as background.
Ten μl of thiazolyl blue tetrazolium bromide solution (5 mg/ml in PH 7.4 PBS) was added to each well containing 100 μl of medium and cells, followed by incubation at 37° C. for 4 hours in the dark. Isopropanol (100 μl, 0.04 N HCl) was added to dissolve blue dye. After dissolved completely, absorbance was measured with plate-reader (Synergy 2, BioTek Instrument) at test wavelength 570 nm and reference wavelength 670 nm. Cell viability was determined by absorbance at 570 nm and reported as ratio to control cells (without OGD).
After aspirating culture medium, cells were fixed and stained by 0.5% CV in 95% (v/v) ethanol for 5 minutes, then washed by tap water several times. After taking photographs, 1% sodium dodecylsulfate solution was added to each well to elute blue dye. Absorbance was measured with plate-reader at 595 nm of wavelength. Values were shown as ratio to control (cells without OGD).

[3] = test system: murine primary cortical neurons; test: Cytotoxicity of H2S donors to murine primary cortical neurons (LDH release); format: cell-based, mice; details: 24 hours
Method: as §1

[4] = test system: murine primary cortical neurons; test: Intracellular calcium level [Ca2+]i (Fura-2/AM) with or without glutamate; format: cell-based, mice
SH-SY5Y [5] = test: Intracellular GSH levels in SH-SY5Y (HPLC); format: cell-based, Human
Method: Intracellular GSH level of SH-SY5Y was measured using HPLC method as previously reported (Kimura et al. (2009) Antioxidants & Redox Signaling 12, 1-13). Briefly, cells were seeded into 6 cm dishes (5×10^5 cells per dish) and treated with 50 μM H2S donors or memantine with or without 2 mM glutamate for 8 hours, followed by washing with ice-cold PBS. Cells were scraped and transferred to a microfuge tube and sonicated. Some fraction of lysate was used for protein assay. After centrifugation, 75 μl of supernatant, 26 μl of 2-(cyclohexylamino) ethanesulfonic acid (CHES, 0.5 M, PH 8.4), and 4 μl of 50 μM MBB were mixed and incubated at room temperature in dark for 30 minutes. Acetic acid (100 μl, 30% v/v) was added, followed by centrifugation at 15,000×g for 10 min after 5 min incubation of the tube on ice. The supernatant was analyzed using HPLC at wavelength of λex=370 nm and λem=486 nm.

[6] = Plasma and cerebral sulfide levels of mice after intraperitoneal administration; format: in vivo; details: 25 μmol/kg intraperitoneal, 90 minutes after administration
Source text: Blood was drawn from left ventricle and centrifuged to collect the plasma. After perfusion with Tris-HCl buffer via left ventricle, brain was harvested, homogenized in Tris-HCl, and centrifuged. Plasma and supernatant of brain homogenate were derivatized with MBB and analyzed by HPLC.

SH-SY5Y [7] = test: Amyloid beta-induced toxicity in SH-SY5Y (LDH release, MTT); format: cell-based, Human; details: 24 hours incubation with Aβ1-42 at 20 μM; for Cell viabilities after Aβ1-42: compound 20 or 50 μM
Method: FIG. 12A-B is a set of two bar graphs showing cell viability of SH-SY5Y cells exposed to 20 μM amyloid beta (Aβ) and treated with memantine, ACS48, or S-memantine at 20 or 50 μM. Cell viability was estimated by LDH release assay in the left graph and MTT assay in the right graph.

[8] = test system: murine primary cortical neurons; test: Amyloid beta-induced toxicity in murine primary cortical neurons (LDH release, MTT); format: cell-based, mice; details: 24 hours incubation with Aβ1-42 at 20 μM; for Cell viabilities after Aβ1-42: compound 5, 10 or 30 μM
Method: FIG. 13A-B is a set of two bar graphs depicting cell viability of murine primary cortical neurons exposed to 20 μM amyloid beta (Aβ) and treated with memantine, ACS48, or S-memantine at 5, 10, or 30 μM. Cell viability was estimated by LDH release assay in the left graph and MTT assay in the right graph.

SH-SY5Y cells [9] = test: MPP+-induced cytotoxicity in SH-SY5Y cells (CV, MTT assay); format: cell-based, Human; details: 24 h
Method: The abilities of ACS48-amantadine, CTBA-memantine, S-memantine, and ACS81-memantine to improve viabilities of SH-SY5Y cells incubated with MPP^+, which has been used for an in-vitro Parkinson's disease model (Robert et al. (2012) Cell Death and Differentiation, 19, 1769-1778), were examined. SH-SY5Y cells (96 well plate, 2×10^5 cells/well) were incubated with MPP^+ (Sigma-Aldrich) at 5 mM in DMEM/F12 at 37° C. for 24 h. ACS48-amantadine, CTBA-memantine, S-memantine, or ACS81-memantine was dissolved in DMSO and added at 5 or 20 μM to the medium 30 min after the addition of MPP^+. The final concentration of DMSO in the medium was adjusted to 0.5% (v/v). Cell viabilities of SH-SY5Y 24 h after the addition of MPP^+ were measured by CV assay or MTT assay.

[10] = test system: phosphorylated Akt at threonine 308; test: Immunoblot of phosphorylated Akt in SH-SY5Y after OGD; format: cell-based, Human; details: 50 μM added 8 hours after end of OGD
[11] = test system: phosphorylated tau protein at serine 202 and threonine 205; test: LPS-induced tau phosphorylation in mice hippocampus (immunoblot); format: in vivo
mice challenged with LPS = test: LPS-induced cognitive impairment, Morris water-maze
[12] = time- and dose-range studies, SH-SY5Y
[13] = 20 μM added 30 min after 5 mM MPP+

O=C(O)c1ccc(-c2cssc2=S)cc1 [ACS48, 4-(3-thioxo-3H-1,2-dithiol-4-yl)-benzoic acid]
Time of peak intracellular sulfide levels after addition (SH-SY5Y cells [1]; 20 μM, SH-SY5Y): around 1.5 hours
Intracellular sulfide levels (SH-SY5Y cells [1]; 20 μM, SH-SY5Y, 37° C.): increased intracellular sulfide levels
Most effective dose to improve viability after OGD (SH-SY5Y cells [2]; [12]): 50 µM
Most effective time point of addition after the end of OGD (SH-SY5Y cells [2]; [12]): 8 h
LDH release (cytotoxicity) ([3]; 50 μM, without memantine): markedly increased LDH release
Glutamate-induced calcium accumulation ([4]; 20 μM, 100 μM glutamate): augmented glutamate-induced calcium accumulation
Increase of intracellular calcium [Ca2+]i ([4]; 20 μM, without glutamate): increased
Intracellular GSH levels (SH-SY5Y [5]; 50 μM, 8 hours, with 2 mM glutamate): restored intracellular GSH levels
Intracellular GSH levels (SH-SY5Y [5]; 50 μM, 8 hours, without glutamate): increased intracellular GSH levels
Plasma sulfide levels [6]: increased plasma sulfide levels
Cell viabilities after Aβ1-42 compared with memantine (SH-SY5Y [7]): improved cell viabilities more markedly than did memantine
Cell viabilities after Aβ1-42 (SH-SY5Y [7]): improved cell viabilities
Cell viabilities after Aβ1-42 compared with memantine [8]: improved cell viabilities more markedly than did memantine
Cell viabilities after Aβ1-42 [8]: improved cell viabilities

O=C(NC12CC3CC(CC(C3)C1)C2)c1ccc(-c2cssc2=S)cc1 [ACS48-amantadine]
Cell viabilities of SH-SY5Y cells after MPP+ (SH-SY5Y cells [9]; 5 μM added 30 min after 5 mM MPP+): improved cell viabilities
Cell viabilities of SH-SY5Y cells after MPP+ (SH-SY5Y cells [9]; [13]): improved cell viabilities

CC12CC3CC(C)(C1)CC(NC(=O)c1ccc(C(N)=S)cc1)(C3)C2 [CTBA-memantine]
Cell viabilities of SH-SY5Y cells after MPP+ (SH-SY5Y cells [9]; [13]): improved cell viabilities

CC12CC3CC(C)(C1)CC(N)(C3)C2 [memantine]
Effect of memantine on intracellular sulfide levels (SH-SY5Y cells [1]; 20 μM memantine, cells incubated with or without ACS48 20 μM): did not affect intracellular sulfide levels
LDH release caused by Na2S or ACS48 on co-incubation with memantine ([3]; 50 μM Na2S or ACS48 plus 50 μM memantine): abolished
Glutamate-induced calcium accumulation ([4]; 20 μM, 100 μM glutamate): suppressed calcium accumulation
GSH levels, memantine per se (SH-SY5Y [5]; 50 μM, 8 hours): did not affect GSH levels
Akt phosphorylation after OGD [10]: did not affect Akt phosphorylation
Cell viabilities after Aβ1-42 (SH-SY5Y [7]): improved cell viabilities
Cell viabilities after Aβ1-42 [8]: improved cell viabilities
LPS-induced tau phosphorylation at serine 202 and threonine 205 in mice hippocampus ([11]; 45 μmol/kg pretreatment): prevented LPS-induced tau phosphorylation
Aβ1-42 accumulation in mice cortex, or hippocampus (Aβ1-42; 45 μmol/kg pretreatment, LPS challenge for 7 days): prevented Aβ1-42 accumulation
Swimming speed in Morris water-maze test (mice challenged with LPS; 45 μmol/kg i.p.): did not change it
Swimming speed in Morris water-maze test (mice challenged with LPS; 90 μmol/kg i.p.): slowed swimming speed

Sodium sulfide [Na2S]
Intracellular sulfide levels (SH-SY5Y cells [1]): increased intracellular sulfide levels
Time of peak intracellular sulfide levels after addition (SH-SY5Y cells [1]): around 1.5 hours
Cell viability after OGD (LDH release) (SH-SY5Y cells [2]): did not improve cell viability; also recorded: failed to improve cell viability; also recorded: No significant difference
Glutamate-induced calcium accumulation [4]: augmented glutamate-induced calcium accumulation
Increase of intracellular calcium [Ca2+]i [4]: increased
Intracellular GSH levels (SH-SY5Y [5]): increased intracellular GSH levels; also recorded: restored intracellular GSH levels
LPS-induced tau phosphorylation at serine 202 and threonine 205 in mice hippocampus ([11]; mouse, in vivo): prevented LPS-induced tau phosphorylation
Aβ1-42 accumulation in mice cortex, or hippocampus (Aβ1-42; mouse, in vivo): prevented Aβ1-42 accumulation
Prevention of Aβ1-42 accumulation compared with memantine (Aβ1-42; mouse, in vivo): prevented Aβ1-42 accumulation more markedly than did memantine
Latency until getting platform in Morris water-maze test (mice challenged with LPS; mouse, in vivo): improved latency

From patent US9242009B2, “Compositions and methods to treat neurodegenerative diseases” (The General Hospital Corporation, priority 2012, dated 2016)
